Broadly, the melting point is the temperature of the solid-liquid transition. For `C[C@H]1CN(C2=NC(=O)/C(=C/c3cccc(-c4cc(F)c(O)c(C56CC7CC(CC(C7)C5)C6)c4)c3)S2)C[C@H](C)O1` (relative stereo) [Compound 50, 5-[3-(3-Adamantan-1-yl-4-hydroxy-5-fluoro-phenyl)benzylidene]-2-(trans-2,6-dimethylmorpholin-4-yl)-thiazol-4-one], the melting point was in the range of 262 to 264 °C.

As for `O=C1N=C(N2CCOCC2)S/C1=C\c1cccc(-c2ccc(O)c(C34CC5CC(CC(C5)C3)C4)c2)c1` [Compound 2, 5-[3-(3-Adamantan-1-yl-4-hydroxy-phenyl)benzylidene]-2-morpholin-4-yl-thiazol-4-one], the melting point lay in the range of 325 to 328 °C. The compound `O=C1N=C(N2CCCCC2)S/C1=C\c1ccc(-c2ccc(O)c(C34CC5CC(CC(C5)C3)C4)c2)cc1` [Compound 4, 5-[4-(3-Adamantan-1-yl-4-hydroxy-phenyl)benzylidene]-2-piperidin-1yl-thiazol-4-one] returned a melting point of 325 to 328 °C. Compound `CN1CCN(C2=NC(=O)/C(=C/c3cccc(-c4ccc(O)c(C56CC7CC(CC(C7)C5)C6)c4)c3)S2)CC1` [Compound 8, 5-[3-(3-Adamantan-1-yl-4-hydroxy-phenyl)benzylidene]-2-(4-methyl-piperazin-1-yl)-thiazol-4-one] showed a melting point of 291 to 294 °C. `CN1CCN(C2=NC(=O)/C(=C/c3cccc(-c4cc(F)c(O)c(C56CC7CC(CC(C7)C5)C6)c4)c3)S2)CC1` [Compound 9, 5-[3-(3-Adamantan-1-yl-4-hydroxy-5-fluoro-phenyl)benzylidene]-2-(4-methyl-piperazin-1-yl)-thiazol-4-one] had a melting point of 226 to 228 °C.

As for `CCN(CC)C1=NC(=O)/C(=C/c2cccc(-c3ccc(O)c(C45CC6CC(CC(C6)C4)C5)c3)c2)S1` [Compound 10, 5-[3-(3-Adamantan-1-yl-4-hydroxy-phenyl)benzylidene]-2-diethylamino-thiazol-4-one], the melting point was 275 to 277 °C. Regarding `O=C1N=C(N2CCCC2)S/C1=C\c1cccc(-c2cc(F)c(O)c(C34CC5CC(CC(C5)C3)C4)c2)c1` [Compound 13, 5-[3-(3-Adamantan-1-yl-4-hydroxy-5-fluoro-phenyl)benzylidene]-2-pyrrolidine-1-yl-thiazol-4-one-thiazol-4-one], the melting point was in the range of 309 to 311 °C. Consider `O=C1N=C(N2CCCCCC2)S/C1=C\c1cccc(-c2ccc(O)c(C34CC5CC(CC(C5)C3)C4)c2)c1` [Compound 14, 5-[3-(3-Adamantan-1-yl-4-hydroxy-phenyl)benzylidene]-2-azepan-1-yl-thiazol-4-one], for which the melting point was 321 to 324 °C.

`O=C1N=C(N2CCCCCCC2)S/C1=C\c1cccc(-c2ccc(O)c(C34CC5CC(CC(C5)C3)C4)c2)c1` [Compound 16, 5-[3-(3-Adamantan-1-yl-4-hydroxy-phenyl)benzylidene]-2-azocan-1-yl-thiazol-4-one] showed a melting point of 284 to 286 °C. Turning to `O=C1N=C(N2CCN(c3cccc(C(F)(F)F)c3)CC2)S/C1=C\c1cccc(-c2cc(F)c(O)c(C34CC5CC(CC(C5)C3)C4)c2)c1` [Compound 19, 5-[3-(3-Adamantan-1-yl-4-hydroxy-5-fluoro-phenyl)benzylidene]-2-[4-(3-trifluoromethyl-phenyl)-piperazon-1-yl]-thiazol-4-one], the melting point lay within 291 to 293 °C. `CN(C)CCN(Cc1ccccc1)C1=NC(=O)/C(=C/c2cccc(-c3cc(F)c(O)c(C45CC6CC(CC(C6)C4)C5)c3)c2)S1` [Compound 20, 5-[3-(3-Adamantan-1-yl-4-hydroxy-5-fluoro-phenyl)benzylidene]-2[benzyl-(2-dimethylamino-ethyl)-amino]-thiazol-4-one]: the melting point lay within 242 to 246 °C. `O=C1N=C(NCCN2CCOCC2)S/C1=C\c1cccc(-c2cc(F)c(O)c(C34CC5CC(CC(C5)C3)C4)c2)c1` [Compound 24, 5-[3-(3-Adamantan-1-yl-4-hydroxy-5-fluoro-phenyl)benzylidene]-2-(2-morpholino-1-yl-ethylamino)-thiazol-4-one]: the melting point lay in the range of 180 to 193 °C.

Turning to `O=C1N=C(N2CCCCC2)S/C1=C\c1cccc(-c2ccc(O)c(C(=O)c3ccccc3)c2)c1` [Compound 26, 5-[3-(3-Benzoyl-4-hydroxy-phenyl)benzylidene]-2-piperidin-1-yl-thiazol-4-one], the melting point was in the range of 135 to 138 °C. For the compound `O=C1N=C(N2CCNCC2)S/C1=C\c1cccc(-c2cc(F)c(O)c(C34CC5CC(CC(C5)C3)C4)c2)c1` [Compound 31, 5-[3-(3-Adamantan-1-yl-4-hydroxy-5-fluoro-phenyl)benzylidene]-2piperazin-1-yl-thiazol-4-one], the melting point is 230 to 233 °C.

The compound `Cc1cc(O)c(C23CC4CC(CC(C4)C2)C3)cc1-c1cccc(/C=C2\SC(N3CCOCC3)=NC2=O)c1` [Compound 33, 5-[3-(3-Adamantan-1-yl-4-hydroxy-6-methyl-phenyl)benzylidene]-2-morpholin-4-yl-thiazol-4-one] registered a melting point of 327 to 329 °C.

Compound `O=C1N=C(N2CCOCC2)S/C1=C\c1ccc(-c2ccnc(C34CC5CC(CC(C5)C3)C4)n2)cc1` [Compound 41, 5-[4-(2-Adamantan-1-yl-pyrimidin-4-yl)-benzylidene]-2-morpholin-4-yl-thiazol-4-one] registered a melting point of 283 to 285 °C.

For `CSC1=NC(=O)/C(=C/c2cccc(-c3cc(F)c(O)c(C45CC6CC(CC(C6)C4)C5)c3)c2)S1` [Compound 51, 5-[3-(3-Adamantan-1-yl-4-hydroxy-5-fluorophenyl)benzylidene]-2-methylsulfanyl-thiazol-4-one], the melting point lay within 270 to 271 °C. The compound `O=C1N=C(NO)S/C1=C\c1cccc(-c2cc(F)c(O)c(C34CC5CC(CC(C5)C3)C4)c2)c1` [Compound 52, 5-[3-(3-Adamantan-1-yl-4-hydroxy-5-fluorophenyl)benzylidene]-2-hydroxyamino-thiazol-4-one] returned a melting point of 238 to 240 °C. In the case of `O=C1N=C(N2CCC[C@H]2C(=O)O)S/C1=C\c1cccc(-c2cc(F)c(O)c(C34CC5CC(CC(C5)C3)C4)c2)c1` [Compound 53, 5-[3-(3-Adamantan-1-yl-4-hydroxy-5-fluoro-phenyl)benzylidene]-2-(2-(S)-carboxy-1-yl)-thiazol-4-one] it was 195 to 198 °C; in that of `O=C1N=C(N2CCCC2)S/C1=C\c1ccc(-c2cc(F)c(O)c(C34CC5CC(CC(C5)C3)C4)c2)s1` [Compound 59, 5-[5-(3-Adamantan-1-yl-4-hydroxy-5-fluoro-phenyl)-thiophene-2-yl-methylene]-2-pyrrolidine-1-yl-thiazol-4-one], 312 to 315 °C. Under `CN(C)c1ccc(/C=C2\SC(N3CCCC3)=NC2=O)cc1-c1cc(F)c(O)c(C23CC4CC(CC(C4)C2)C3)c1` [Compound 61, 5-[3-(3-Adamantan-1-yl-4-hydroxy-5-fluoro-phenyl)-4-dimethylamino-benzylidene]-2-pyrrolidin-1-yl-thiazol-4-one] stands 294 to 298 °C.

As to `O=C1N=C(N2CCOCC2)S/C1=C\c1ccc(OC(F)(F)F)c(-c2cc(F)c(O)c(C34CC5CC(CC(C5)C3)C4)c2)c1` [Compound 62, 5-[3-(3-Adamantan-1-yl-4-hydroxy-5-fluoro-phenyl)-4-trifluoromethoxy-benzylidene]-2-morpholin-4-yl-thiazol-4-one], the melting point worked out at 238 °C. Compound `O=C1N=C(N2CCOCC2)S/C1=C\c1cccc(-c2ccc(O)c(F)c2)c1` [Compound 64, 5-[3-(3-Fluoro-4-hydroxy-phenyl)-benzylidene]-2-morpholin-4-yl-thiazol-4-one] showed a melting point of 233 to 235 °C. With `O=C1N=C(NN2CCCC2)S/C1=C\c1cccc(-c2cc(F)c(O)c(C34CC5CC(CC(C5)C3)C4)c2)c1` [Compound 69, 5-[3-(3-Adamantan-1-yl-4-hydroxy-5-fluoro-phenyl)benzylidene]-2-(pyrrolidin-1-ylamino)-thiazol-4-one], the melting point fell in the range of 293 to 296 °C.

`N=C(N)NC1=NC(=O)/C(=C/c2cccc(-c3cc(F)c(O)c(C45CC6CC(CC(C6)C4)C5)c3)c2)S1` [Compound 70, 5-[3-(3-Adamantan-1-yl-4-hydroxy-5-fluorophenyl)benzylidene]-2-(N-guanidinyl)-thiazol-4-one] registered a melting point of 288 to 290 °C. Turning to `CONC1=NC(=O)/C(=C/c2cccc(-c3cc(F)c(O)c(C45CC6CC(CC(C6)C4)C5)c3)c2)S1` [Compound 71, 5-[3-(3-Adamantan-1-yl-4-hydroxy-5-fluorophenyl)benzylidene]-2-methoxyamino-thiazol-4-one], the melting point is 286 to 288 °C. Take `NC(=O)NNC1=NC(=O)/C(=C/c2cccc(-c3cc(F)c(O)c(C45CC6CC(CC(C6)C4)C5)c3)c2)S1` [Compound 72, 5-[3-(3-Adamantan-1-yl-4-hydroxy-5-fluorophenyl)benzylidene]-2-semicarbazid-1-yl-thiazol-4-one]: the melting point fell in the range of 234 to 236 °C.

For the compound `O=C1N=C(NN2CCOCC2)S/C1=C\c1cccc(-c2cc(F)c(O)c(C34CC5CC(CC(C5)C3)C4)c2)c1` [Compound 73, 5-[3-(3-Adamantan-1-yl-4-hydroxy-5-fluorophenyl)benzylidene]-2-(morpholin-4-yl-amino)-thiazol-4-one], the melting point was 304 to 309 °C. On to `NNC1=NC(=O)/C(=C/c2cccc(-c3cc(F)c(O)c(C45CC6CC(CC(C6)C4)C5)c3)c2)S1` [Compound 74, 5-[3-(3-Adamantan-1-yl-4-hydroxy-5-fluorophenyl)benzylidene]-2-hydrazino-thiazol-4-one], for which the melting point lay within 303 to 308 °C. `O=C1N=C(N2CCC[C@@H]2C(=O)O)S/C1=C\c1cccc(-c2cc(F)c(O)c(C34CC5CC(CC(C5)C3)C4)c2)c1` [Compound 76, 5-[3-(3-Adamantan-1-yl-4-hydroxy-5-fluoro-phenyl)benzylidene]-2-(2-(R)-carboxy-1-yl)-thiazol-4-one] yielded a melting point of 164 to 168 °C.

`CC1(C)COc2ccc(-c3cncc(/C=C4\SC(N5CCOCC5)=NC4=O)c3)cc21` [Compound 82, 5-[5-(3,3-Dimethyl-2,3-dihydro-benzofuran-5-yl)-pyridin-3-ylmethylene]-2-morpholin-4-yl-thiazol-4-one] showed a melting point of 230 to 233 °C.

The values are drawn from patent US20040097566A1, “2-Substituted thiazolidinone and oxazolidinone derivatives for the inhibition of phosphatases and the treatment of cancer” (priority 2001, published 2004).
